Converted amounts (≈) assume the structure as drawn. Like-named read-outs stand apart in the source and are kept apart here. Where a SMILES comes first, the peptide text is derived from it. Bridges are numbered along the chain shown (N, C = ends). Where no end group is shown, it is not given here. [ ]: non-standard residue; d: D form. The star is where a group is joined. Hexadecanoyl(3R-OH) = CCCCCCCCCCCCC[C@@H](O)CC(=O)*; Tetradecanoyl(3R-OH) = CCCCCCCCCCC[C@@H](O)CC(=O)*; X1 = CC[C@H](C)CCCCC(=O)*; Dab = NCC[C@H](N)C(=O)O
What was measured:
[1] = system: X. nematophila WT; type: cell-based, Xenorhabdus nematophila F1
Experimental: (§1) Bacteria were routinely grown in Lysogeny Broth (Sigma-Aldrich) medium at 28°C (Xenorhabdus, S. maltophilia, P. protegens, Ochrobactrum sp., Achromobacter sp., A. faecalis, Pseudochrobactrum sp., Brevundimonas sp., E. mundtii, and D. rugosa) or 37°C (Escherichia coli and M. luteus). When required, antibiotics were used at the following final concentrations: gentamicin (Sigma-Aldrich), 20 µg mL^−1 and chloramphenicol (Sigma-Aldrich), 20 µg mL^−1 for E. coli strains and 15 µg mL^−1 for X. nematophila (or 8 µg mL^−1 for allelic exchange).
(§2) MICs were determined in accordance with CLSI guidelines ([73]) with the following modifications: 5 mL of MHB broth (Bio-Rad) was inoculated with an overnight culture in LB broth and grown to a 0.6 < OD600 < 0.9. The inoculum for the microplate was prepared as described in the CLSI guide, with dilution in MHB to approximately 10^4 CFU mL^−1. Ninety-six-well low-binding plates were incubated for 48 h at 28°C with slow shaking. The peptides used in the analyses were supplied by the following providers: cecropin A (Sigma-Aldrich), cecropin B1 (NeoMPS S.A.) ([74]), cecropin C (Proteogenix), cecropin P1 (Sigma-Aldrich), drosocin (Eurogentec), colistin (Sigma-Aldrich), polymyxin B (Sigma-Aldrich), and NOSO 95C (odilorhabdin, Nosopharm S.A.). Synthetic PAX1′, PAX2′, and PAX7 were provided by the SynBio3 platform (IBMM, Montpellier, France), and their structure is shown in Fig. S1.

[2] = system: X. nematophila ∆paxA; type: cell-based, Xenorhabdus nematophila F1; conditions: CLSI with modifications, MHB broth, approx. 10^4 CFU mL^−1, 96-well low-binding plates, 48 h at 28°C, slow shaking
Experimental: as §1
The ΔpaxA mutant was constructed using the same experimental strategy as for the construction of the ΔngrA mutant from the WT strain X. nematophila F1 ([37]). The upstream and downstream regions of the paxA gene were amplified by PCR with the L-PCR1-paxA-SalI and R-PCR1-paxA-BamHI primers for the upstream region (621 bp) and the L-PCR2-paxA-BamHI and R-PCR2-paxA-SpeI primers for the downstream region (601 bp). The two fragments obtained were inserted, together with the 3.8 kb BamHI fragment ΩCam cassette from pHP45-ΩCm, conferring resistance to chloramphenicol, into pJQ200SK digested with SalI and SpeI for insertion of the ΩCam cassette between the two PCR fragments. The resulting plasmid, pJQ-paxA::ΩCm, was used to transform E. coli WM3064 and was introduced into X. nematophila F1 by mating. Allelic exchange was performed as previously described ([68]). ΩCam insertion was confirmed by PCR analysis using primers L-paxTA and R-verif-pax. The absence of PAX peptide products was assessed by mass spectrometry analysis, as described below. The clone obtained was called ΔpaxA.
as §2

[3] = system: X. nematophila ∆ngrA; assay: MIC assay of antimicrobial peptides on X. nematophila ∆ngrA; type: cell-based, Xenorhabdus nematophila F1; conditions: CLSI with modifications, MHB broth, approx. 10^4 CFU mL^−1, 96-well low-binding plates, 48 h at 28°C, slow shaking
Experimental: as §1, §2

[4] = system: Achromobacter sp. D7.1; type: cell-based; conditions: 48 h
Experimental: as §1, §2

[5] = system: Alcaligenes faecalis SC; type: cell-based; conditions: 48 h
Experimental: as §1, §2

[6] = system: Brevundimonas sp. ALL3; type: cell-based; conditions: 48 h
Experimental: as §1, §2

[7] = system: Diutina rugosa GC; type: cell-based; conditions: 48 h
Experimental: as §1, §2

[8] = system: Enterococcus mundtii SP; type: cell-based; conditions: 48 h
Experimental: as §1, §2

[9] = system: Micrococcus luteus CIP103430; type: cell-based; conditions: CIP103430, 48 h
Experimental: as §1, §2

[10] = system: Ochrobactrum sp. ALL4; type: cell-based; conditions: 48 h
Experimental: as §1, §2

[11] = system: Pseudochrobactrum sp. AL3; type: cell-based; conditions: 48 h
Experimental: as §1, §2

[12] = system: Pseudomonas protegens PPSC10; type: cell-based; conditions: 48 h
Experimental: as §1, §2

[13] = system: Stenotrophomonas maltophilia ALL5; type: cell-based; conditions: 48 h
Experimental: as §1, §2

[14] = X. nematophila WT, CLSI with modifications, MHB broth, approx. 10^4 CFU mL^−1, 96-well low-binding plates, 48 h at 28°C, slow shaking

CC[C@H](C)CCCCC(=O)N[C@@H](CCN)C(=O)N[C@H](C(=O)N[C@@H](CCN)C(=O)N[C@H]1CCNC(=O)[C@H]([C@@H](C)O)NC(=O)[C@H](CCN)NC(=O)[C@H](CCN)NC(=O)[C@H](CC(C)C)NC(=O)[C@@H](CC(C)C)NC(=O)[C@H](CCN)NC1=O)[C@@H](C)O [Colistin, colistin] (X1-[Dab]T[Dab][Dab][Dab][dL]L[Dab][Dab]T; lactam 4-C (inferred); N-terminus assumed)
Minimum inhibitory concentration [1, 14]: 3.9 µg/mL (≈ 3.33 µM)
Minimum inhibitory concentration [2]: 1.95 µg/mL (≈ 1.67 µM)
Minimum inhibitory concentration [3]: 3.9 µg/mL (≈ 3.33 µM)

CC[C@H](C)CCCCC(=O)N[C@@H](CCN)C(=O)N[C@H](C(=O)N[C@@H](CCN)C(=O)N[C@H]1CCNC(=O)[C@H]([C@@H](C)O)NC(=O)[C@H](CCN)NC(=O)[C@H](CCN)NC(=O)[C@H](CC(C)C)NC(=O)[C@@H](Cc2ccccc2)NC(=O)[C@H](CCN)NC1=O)[C@@H](C)O [Polymyxin B, polymyxin B] (X1-[Dab]T[Dab][Dab][Dab][dF]L[Dab][Dab]T; lactam 4-C (inferred); N-terminus assumed)
Minimum inhibitory concentration [1, 14]: 0.245 µg/mL (≈ 0.204 µM)
Minimum inhibitory concentration [2]: 0.245 µg/mL (≈ 0.204 µM)
Minimum inhibitory concentration [3]: 0.245 µg/mL (≈ 0.204 µM)

CCCCCCCCCCC[C@@H](O)CC(=O)NCC(=O)N[C@@H](CCCCN)C(=O)N[C@@H]1CCCCNC(=O)[C@H](CCCCN)NC(=O)[C@@H](CCCCN)NC(=O)[C@@H](CCCCN)NC(=O)[C@H](CCCCN)NC1=O [Synthetic PAX1′] ({Tetradecanoyl(3R-OH)}-GK[dK]K[dK][dK]K; lactam 3-C (inferred))
Minimum inhibitory concentration ([1]; 48 h): >1,500 µg mL^−1
Minimum inhibitory concentration [4]: > 250 µg/mL
Minimum inhibitory concentration [5]: > 250 µg/mL
Minimum inhibitory concentration [6]: 31.25 µg/mL (≈ 29.7 µM)
Minimum inhibitory concentration [7]: 25 µg/mL (≈ 23.8 µM)
Minimum inhibitory concentration [8]: 125 µg/mL (≈ 119 µM)
Minimum inhibitory concentration [9]: 3.9 µg/mL (≈ 3.71 µM)
Minimum inhibitory concentration [10]: > 250 µg/mL
Minimum inhibitory concentration [11]: > 250 µg/mL
Minimum inhibitory concentration [12]: > 250 µg/mL
Minimum inhibitory concentration [13]: > 250 µg/mL

CCCCCCCCCCC[C@@H](O)CC(=O)NCC(=O)N[C@@H](CCCNC(=N)N)C(=O)N[C@@H]1CCCCNC(=O)[C@H](CCCCN)NC(=O)[C@@H](CCCCN)NC(=O)[C@@H](CCCCN)NC(=O)[C@H](CCCCN)NC1=O [Synthetic PAX2′] ({Tetradecanoyl(3R-OH)}-GR[dK]K[dK][dK]K; lactam 3-C (inferred))
Minimum inhibitory concentration ([1]; 48 h): 187.5 µg/mL (≈ 174 µM)
Minimum inhibitory concentration [2]: 375 µg/mL (≈ 347 µM)
Minimum inhibitory concentration [3]: 375 µg/mL (≈ 347 µM)
Minimum inhibitory concentration [4]: 62.5 µg/mL (≈ 57.8 µM)
Minimum inhibitory concentration [5]: 125 µg/mL (≈ 116 µM)
Minimum inhibitory concentration [6]: 62.5 µg/mL (≈ 57.8 µM)
Minimum inhibitory concentration [7]: 62.5 µg/mL (≈ 57.8 µM)
Minimum inhibitory concentration [8]: 31.25 µg/mL (≈ 28.9 µM)
Minimum inhibitory concentration [9]: 1.95 µg/mL (≈ 1.8 µM)
Minimum inhibitory concentration [10]: 62.5 µg/mL (≈ 57.8 µM)
Minimum inhibitory concentration [11]: 125 µg/mL (≈ 116 µM)
Minimum inhibitory concentration [12]: 125 µg/mL (≈ 116 µM)
Minimum inhibitory concentration [13]: 125 µg/mL (≈ 116 µM)

CCCCCCCCCCCCC[C@@H](O)CC(=O)NCC(=O)N[C@@H](CCCCN)C(=O)N[C@@H]1CCCCNC(=O)[C@H](CCCCN)NC(=O)[C@@H](CCCCN)NC(=O)[C@@H](CCCCN)NC(=O)[C@H](CCCCN)NC1=O [Synthetic PAX7] ({Hexadecanoyl(3R-OH)}-GK[dK]K[dK][dK]K; lactam 3-C (inferred))
Minimum inhibitory concentration [1, 14]: 187.5 µg/mL (≈ 174 µM)
Minimum inhibitory concentration [3]: 375 µg/mL (≈ 347 µM)
Minimum inhibitory concentration [4]: 62.5 µg/mL (≈ 57.8 µM)
Minimum inhibitory concentration [5]: 125 µg/mL (≈ 116 µM)
Minimum inhibitory concentration [6]: 31.25 µg/mL (≈ 28.9 µM)
Minimum inhibitory concentration [7]: 62.5 µg/mL (≈ 57.8 µM)
Minimum inhibitory concentration [8]: 15.63 µg/mL (≈ 14.5 µM)
Minimum inhibitory concentration [9]: 0.49 µg/mL (≈ 0.453 µM)
Minimum inhibitory concentration [10]: 62.5 µg/mL (≈ 57.8 µM)
Minimum inhibitory concentration [11]: 62.5 µg/mL (≈ 57.8 µM)
Minimum inhibitory concentration [12]: 62.5 µg/mL (≈ 57.8 µM)
Minimum inhibitory concentration [13]: 125 µg/mL (≈ 116 µM)

GKPRPYSPRPTSHPRPIRV [Drosocin, drosocin]
Minimum inhibitory concentration ([1]; 48 h): >50 µg/mL

SWLSKTAKKLENSAKKRISEGIAIAIQGGPR [Cecropin P1, cecropin P1]
Minimum inhibitory concentration [1, 14]: >12.5 µg/mL
Minimum inhibitory concentration [3]: 12.5 µg/mL

cecropin B1
Minimum inhibitory concentration [1, 14]: 6.25 µg/mL
Minimum inhibitory concentration [2]: 6.25 µg/mL
Minimum inhibitory concentration [3]: 6.25 µg/mL

cecropin C
Minimum inhibitory concentration [1, 14]: 12.5 µg/mL
Minimum inhibitory concentration [2]: 12.5 µg/mL
Minimum inhibitory concentration [3]: 25 µg/mL
